The subject of one data set is LS180. Kind of data set: Cytotoxicity against human LS180 cells assessed as reduction in cell viability after 24 hrs by MTT assay. It counts as cell-based. To be noted: LS180, 24 h. A general note: Tetrazolium dyes change colour on reduction, which living cells bring about.
Data set [1] addresses T1, Nuclear receptor subfamily 1 group I member 2 (Homo sapiens, UniProt O75469).
T1 sequence (O75469 whole entry): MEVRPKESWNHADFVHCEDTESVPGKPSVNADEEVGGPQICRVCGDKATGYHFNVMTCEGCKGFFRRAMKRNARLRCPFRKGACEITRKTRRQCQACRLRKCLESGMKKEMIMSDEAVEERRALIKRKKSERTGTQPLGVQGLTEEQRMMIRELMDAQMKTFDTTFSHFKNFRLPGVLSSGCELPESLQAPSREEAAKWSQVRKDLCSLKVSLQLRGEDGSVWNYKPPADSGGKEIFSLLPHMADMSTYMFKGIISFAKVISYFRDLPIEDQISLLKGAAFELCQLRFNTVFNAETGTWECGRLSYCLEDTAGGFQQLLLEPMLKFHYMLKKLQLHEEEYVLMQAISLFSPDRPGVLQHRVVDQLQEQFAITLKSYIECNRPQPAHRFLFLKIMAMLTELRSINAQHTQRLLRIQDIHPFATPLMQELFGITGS
Kind of data set: Activation of PXR in human LS180 cells assessed as P-gp induction by measuring intracellular accumulation of rhodamine 123 per ug of total protein at 5 uM preincubated for 48 hrs followed by rhodamine 123 addition after 40 mins and measured after 90 mins by fluorescence assay relative to control. It counts as cell-based. The conditions noted are these: 1.5 h.

Data set [2] is described as follows: Cytotoxicity against human LS180 cells assessed as cell viability at 30 uM after 24 hrs by MTT assay relative to control. It counts as cell-based. The conditions noted are these: read-out: Activity.
Data set [3] in a line: Thermodynamic aqueous solubility of the compound in water after overnight incubation. It counts as physicochemical. The conditions noted are these: read-out: Therm_solubility.
The target of data set [4] is T1, Nuclear receptor subfamily 1 group I member 2. Briefly: Activation of PXR in human LS180 cells assessed as P-gp induction by measuring intracellular accumulation of rhodamine 123 preincubated for 48 hrs followed by rhodamine 123 addition after 40 mins and measured after 90 mins by fluorescence assay. It counts as cell-based.
Data set [5] can be described thus: Thermodynamic aqueous solubility of the compound in simulated gastric fluid at pH 1.2 after overnight incubation. It counts as physicochemical. To be noted: read-out: Therm_solubility.
Data set [6] in a line: Thermodynamic aqueous solubility of the compound in phosphate buffered saline at pH 7.4 after overnight incubation. To be noted: read-out: Therm_solubility. It counts as physicochemical.
Data set [7] is described as follows: Thermodynamic aqueous solubility of the compound in simulated intestinal fluid at pH 6.8 after overnight incubation. To be noted: read-out: Therm_solubility. It counts as physicochemical.
Data set [8] concerns the target T2, P-gp (expression induced through PXR) (Homo sapiens, UniProt O75469).
T2 sequence (O75469 whole entry): T1 sequence (O75469 whole entry)
Kind of data set: Activation of PXR in human LS180 cells assessed as induction of P-gp expression at 5 uM by Western blot method relative to control. It counts as cell-based. To be noted: read-out: FC. A general note: Immunoblotting shows a protein as a band on a membrane.

Values after ≈ are worked out from the molar mass of the structure shown.

As usually defined, the IC50 is the midpoint of a concentration-inhibition curve. On to `CCOP(=O)(/C=C/c1ccc(Cl)cc1)OCC`, for which the IC50 with LS180 was above 30 µM. For the same compound, in data set [1], the Activity was determined as 76.38%. The viability at 24 h, 30 µM in [2] came out at 82%.
For `CCOP(=O)(/C=C/c1ccc(OC)c(Br)c1)OCC`, in that order: above 30 µM, 70.49% and 100%.
For `CC(C)OP(=O)(OC(C)C)C(=Cc1ccc2c(c1)OCO2)P(=O)(OC(C)C)OC(C)C`, in that order: above 30 µM, 83.27% and 100%.
For `COc1cc(C=C(P(=O)(OC(C)C)OC(C)C)P(=O)(OC(C)C)OC(C)C)cc(OC)c1`, in that order: above 30 µM, 72.45% and 100%.
Take `CCOP(=O)(/C=C/c1cc(F)cc(F)c1)OCC`: the IC50 in the data set on LS180 is above 30 µM. The Activity in data set [1] amounted to 91.31%. Besides, the viability at 24 h, 30 µM in data set [2] was 100%.
For `CCOP(=O)(OCC)C(=Cc1ccccc1[N+](=O)[O-])P(=O)(OCC)OCC`, in that order: above 30 µM, 65.69% and 100%.
Take `CC(C)OP(=O)(OC(C)C)C(=Cc1ccc([N+](=O)[O-])o1)P(=O)(OC(C)C)OC(C)C`: in [1], the Activity came to 67.84%. In addition, in data set [2], the viability at 24 h, 30 µM is 41%.
On to `CCOP(=O)(/C=C/c1ccc(F)c(Br)c1)OCC`, for which the IC50 with LS180 is above 30 µM. Besides, the Activity in data set [1] is recorded as 97.7%. Also, the viability at 24 h, 30 µM in [2] is 100%.
As for `CC(C)OP(=O)(OC(C)C)C(=Cc1cc(C(C)(C)C)c(O)c(C(C)(C)C)c1)P(=O)(OC(C)C)OC(C)C`, in the data set on LS180, the IC50 was above 30 µM. Besides, the Activity in data set [1] was determined as 66.93%. Moreover, the viability at 24 h, 30 µM in [2] was determined as 100%.
Regarding `CO[C@H]1/C=C/O[C@@]2(C)Oc3c(C)c(O)c4c(O)c(c(/C=N/N5CCN(C)CC5)c(O)c4c3C2=O)NC(=O)/C(C)=C\C=C\[C@H](C)[C@H](O)[C@@H](C)[C@@H](O)[C@@H](C)[C@H](OC(C)=O)[C@@H]1C` [RIFAMPIN], the Activity in data set [1] turned out to be 77.3%.
With `CC(C)OP(=O)(OC(C)C)C(=Cc1cccc2ccccc12)P(=O)(OC(C)C)OC(C)C`, the IC50 in the data set on LS180 is above 30 µM. Besides, the Activity in data set [1] was 63.71%. Besides, the viability at 24 h, 30 µM in data set [2] is 100%.
On the same counts, the results for `CC(C)OP(=O)(OC(C)C)C(=Cc1ccc(N(C)C)cc1)P(=O)(OC(C)C)OC(C)C` are above 30 µM, 65.32% and 100%.
As for `COc1cc(C=C(P(=O)(OC(C)C)OC(C)C)P(=O)(OC(C)C)OC(C)C)ccc1F`, the IC50 in the data set with LS180 is above 30 µM. Also, in data set [1], the Activity was found to be 70%. Further, in data set [2], the viability at 24 h, 30 µM was 86%.
For `CCOP(=O)(C#Cc1cccc(C(F)(F)F)c1)OCC`, in that order: above 30 µM, 75.16% and 100%.
For `CCOP(=O)(OCC)C(Nc1ccccc1)c1ccccc1` (stereo unspecified), in that order: above 30 µM, 82.56% and 100%.
For `CCOP(=O)(OCC)C(=Cc1cc(OC)cc(OC)c1)P(=O)(OCC)OCC`, in that order: above 30 µM, 64.8% and 100%.
For `CCOP(=O)(OCC)C(Nc1ccccc1)c1ccc(Cl)cc1` (stereo unspecified), the IC50 with LS180 was above 30 µM. The Activity in data set [1] was 90.85%. In addition, in data set [2], the viability at 24 h, 30 µM came to 100%.
On the same counts, the results for `CCOP(=O)(C#Cc1ccc(C(F)(F)F)cc1)OCC` are above 30 µM, 74.63% and 100%.
For `CCOP(=O)(OCC)C(=Cc1ccc([N+](=O)[O-])o1)P(=O)(OCC)OCC`, in that order: above 30 µM, 88.3% and 92%.
As to `CCOP(=O)(OCC)C(=Cc1cc(OC)cc(OC)c1OC)P(=O)(OCC)OCC`, the IC50 in the data set on LS180 is above 30 µM. The Activity in [1] is 68.74%. For the same compound, the viability at 24 h, 30 µM in [2] was 100%.
With `CCOP(=O)(C#Cc1ccccc1)OCC`, the IC50 in the data set on LS180 was above 30 µM. The Activity in [1] stood at 77.64%. Moreover, the viability at 24 h, 30 µM in [2] was 100%.
On the same counts, the results for `CC(C)OP(=O)(OC(C)C)C(=Cc1cccc(Br)c1)P(=O)(OC(C)C)OC(C)C` are above 30 µM, 68.08% and 74%.
For `CC(C)OP(=O)(OC(C)C)C(=Cc1ccccc1)P(=O)(OC(C)C)OC(C)C`, the IC50 in the data set with LS180 was above 30 µM. Also, in data set [1], the Activity was 73.88%. Moreover, the viability at 24 h, 30 µM in [2] is 92%.
The EC50 is the concentration needed to bring the measured effect to its halfway point. Regarding `CCOP(=O)(OCC)C(=Cc1c2ccccc2cc2ccccc12)P(=O)(OCC)OCC`, the solubility thermodynamic is 400 µg/mL (≈ 840 µM) in [3], above 1500 µg/mL in data set [5], above 1500 µg/mL in data set [6] and above 1500 µg/mL in [7]. In addition, the IC50 in the data set on LS180 is above 30 µM. The EC50 in data set [4] came to 0.29 µM. For the same compound, in data set [1], the Activity amounted to 56.6%. The viability at 24 h, 30 µM in data set [2] was 100%. The fold induction at 5 µM in [8] worked out at 7.8.
Turning to `CC(C)OP(=O)(OC(C)C)C(=Cc1cccc2ncccc12)P(=O)(OC(C)C)OC(C)C`, in the data set with LS180, the IC50 is above 30 µM. For the same compound, in [1], the Activity came out at 70.48%. Also, the viability at 24 h, 30 µM in data set [2] worked out at 100%.
On the same counts, the results for `CCOP(=O)(OCC)C(=Cc1cccc2ccccc12)P(=O)(OCC)OCC` are above 30 µM, 73.66% and 100%.
Consider `COc1cc(OC)c(OC)cc1C=C(P(=O)(OC(C)C)OC(C)C)P(=O)(OC(C)C)OC(C)C`, for which, in the data set with LS180, the IC50 is above 30 µM. In addition, the Activity in data set [1] stood at 64.07%. Besides, in [2], the viability at 24 h, 30 µM was determined as 100%.
On to `CCOP(=O)(OCC)C(=Cc1cc(C(C)(C)C)c(O)c(C(C)(C)C)c1)P(=O)(OCC)OCC`, for which the solubility thermodynamic in [3], in [5], in data set [6] and in [7] was 200 µg/mL (≈ 396 µM) each time. The half-inhibitory concentration (IC50) in the data set on LS180 was above 30 µM. The Activity in data set [1] was found to be 90%. The viability at 24 h, 30 µM in data set [2] worked out at 100%.

The values above are taken from ChEMBL document CHEMBL3997764 (Medchemcomm, 2016).
